{"source": "paper PMC5701947", "about": "“β1-Adrenergic Receptor Contains Multiple IA^k and IE^k Binding Epitopes That Induce T Cell Responses with Varying Degrees of Autoimmune Myocarditis in A/J Mice” (Frontiers in Immunology, 2017)", "key": {"CD4 T cells [1]": {"system": "CD4 T cells", "experiment": "IE^k dextramer staining of CD4 T cells", "type": "cell-based, A/J mice", "conditions": "IE^k dextramers; cells from β1ARAc 181–200-immunized mice; P = 0.028 vs control dextramer; Figure 4B", "source_text": "To enumerate the frequencies of antigen-specific CD4 T cells, we created IA^k dextramers for β1AR 171-190 and β1AR 211–230, and IE^k dextramers for β1AR 181–200. To create IA^k dextramers, the nucleotide sequence for β1AR 171–190 ([…]) and β1AR 211–230 ([…]) was inserted into the IA^k-β construct that we had described previously ([35], [39]), whereas IA^k/RNase 43–56 (control) dextramers were readily available in our laboratory ([30], [35], [40]). The soluble, IA^k/β1AR 171–190 and IA^k/β1AR 211–230 molecules were expressed in sf9 cells using baculovirus expression system. After purifying through anti-IA^k-affinity column, the IA^k/β1AR 171–190 and IA^k/β1AR 211–230 monomers were biotinylated and dextramers were derived using streptavidin (SA)/fluorophore-conjugated dextran molecules as described previously ([35], [39]). […]\nTo stain with dextramers, lymphocytes obtained from lymph nodes and spleens from immunized animals were stimulated with the immunizing peptides namely, β1ARAc 171–190, β1ARAc 181–200, and β1ARAc 211–230 (20 µg/ml) for 2 days and growth medium containing interleukin (IL)-2 (IL-2 medium) was then added. […] After washing, and acquisition by flow cytometry, percent dextramer^+ (dext^+) cells were analyzed within the live cells (7-AAD^−) using Flow Jo software ([34], [35], [39])."}, "Balb/c mice": {"system": "Balb/c mice", "conditions": "cited from earlier work", "source_text": "It has been proposed that acetylated peptides can be prevented from intracellular degradation leading to their stable binding to MHC molecules ([29], [50]). Thus, we decided to use the acetylated peptides, and focused only the peptides that were located within the stretch of β1AR 171–230 (Table 1)."}, "[2]": {"system": "T cells (lymph node cells/splenocytes from immunized animals)", "experiment": "T cell proliferation assay ([3H]-thymidine)", "type": "cell-based, A/J mice", "conditions": "for T cell responses: animals immunized with pool IV, fold vs medium control", "in_short": "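Lymph node cells and splenocytes from immunized animals, or magnetically enriched CD4/CD8 T cells (~95% pure) plus peptide-loaded irradiated syngeneic naive splenocytes (1:1), stimulated at ~5 × 10^6 cells/ml with immunizing peptide (0–100 µg/ml) for 2 days. Pulsed with [3H]-thymidine for 16 h; proliferation read as cpm.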"}, "A/J mice (hearts)": {"system": "A/J mice (hearts)", "experiment": "Induction of myocarditis by active immunization with peptides (histology)", "type": "in vivo", "conditions": "for Myocarditis incidence / Myocarditis incidence (animals with disease/total) / Inflammatory foci: individual non-acetylated peptide, 100 µg per animal; for Myocarditis incidence / Myocarditis incidence (animals with disease/total): CFA/PT, days 0 and 7, day 21; for Inflammatory foci: mean ± SEM of myocarditic animals"}, "[3]": {"system": "lymph node cell (LNC) cultures", "experiment": "Cytokine secretion (bead array)", "type": "cell-based, A/J mice", "conditions": "LNC supernatants, 50–100 µg/ml, day 3; P = 0.06", "procedure": "Supernatants were obtained from lymph node cell (LNC) cultures prepared from immunized animals that were stimulated with or without acetylated or non-acetylated, β1AR 171–190, β1AR 181–200, and β1AR 211–230 and RNase 43–56/HEL 46–61 (controls) (50–100 µg/ml) on day 3 poststimulations. Cytokine analysis was performed using beads conjugated with capture and detection Abs with the standard curves being derived from serial dilutions of mouse cytokine standard mixtures, consisting of IL-2, interferon (IFN)-γ, IL-4, IL-6, IL-10, IL-17A, and tumor necrosis factor (TNF)-α as recommended by the manufacturer’s guidelines (BD Biosciences). Briefly, capture bead/cytokine antibody conjugates were first prepared, and the mixtures were added to a tube containing diluted standards or test samples, followed by addition of detection antibodies. After acquiring by flow cytometry, FCAP Array Software was used to analyze the data (BD Biosciences) ([26], [30])."}, "antigen-primed T cells": {"system": "antigen-primed T cells", "experiment": "Cytokine-producing cells after Th1/Th17 polarization (flow cytometry)", "type": "cell-based, A/J mice", "conditions": "Figure S4", "procedure": "Lymph node cells obtained from animals immunized with individual peptides, β1ARAc 171–190, β1ARAc 181–200, or β1ARAc 211–230 on day 21 postimmunizations were stimulated with the corresponding immunizing peptides (20 µg/ml) for 2 days followed by resting in IL-2 medium. In a separate set of experiments, animals were immunized with a mixture of β1ARAc 171–190, 181–200, and 211–230 peptides and their lymphocytes were stimulated with the immunizing peptides individually (50 µg/ml) for 2 days and then IL-2 medium was added. On day 3, one of the two aliquots of cells were exposed to a mixture of Th1- and Th17-polarizing conditions by adding recombinant mouse IL-12 (20 ng/ml), IL-1β (30 ng/ml), IL-6 (30 ng/ml), IL-23 (50 ng/ml) (all cytokines were procured from BioLegend, San Diego, CA, USA), and human transforming growth factor-β1 (10 ng/ml; eBioscience, San Diego, CA, USA) as reported previously ([41]–[44]), and the other was maintained in IL-2 medium alone. Flow cytometrically, we analyzed the percentages of cytokine-producing cells on days 3 and 6 following polarization as we have described previously ([28], [31], [40]). Viable cells harvested on days 8–10 were administered through i.p., or retro-orbital sinus (4–14 × 10^6 cells/animal) into naive mice primed with lipopolysaccharide (LPS, 25 µg/mouse i.p., day −4 and day 0). […]"}, "CD4 T cells [4]": {"system": "CD4 T cells", "experiment": "T cell proliferation assay, enriched CD4 T cells", "type": "cell-based, A/J mice", "conditions": "CD4 T cells ~95% purity from immunized mice; peptide-loaded irradiated splenocytes 1:1; Figure S3B", "procedure": "(§1) At termination, lymph nodes (maxillary, mandibular, axillary, inguinal, and popliteal) and spleens were harvested from immunized animals to prepare single cell suspensions. Similarly, splenocytes were prepared from naive animals. After lysing the erythrocytes and washing, cell pellets were suspended in RPMI medium containing 10% fetal bovine serum, 1 mM sodium pyruvate, 4 mM L-glutamine, 1 × each of non-essential amino acids and vitamin mixture, and 100 U/ml penicillin–streptomycin (Lonza, Walkersville, MD, USA; hereafter called growth medium). In some experiments, CD4 T cells and CD8 T cells were enriched to a purity of ~95% by negative selection based on magnetic separation using IMAG (BD Biosciences, San Jose, CA, USA) ([31]). To stimulate CD4 and CD8 T cells, syngeneic naive irradiated splenocytes loaded with peptides were used as antigen-presenting cells at a ratio of 1:1. Cells were stimulated at a density of ~5 × 10^6 cells/ml in triplicates with or without the immunizing peptides (0–100 µg/ml) in growth medium. RNase 43–56 or HEL 46–61 were used as irrelevant controls. After 2 days, cells were pulsed with tritiated ^3[H]-thymidine (1 μCi/well; MP Biomedicals, Santa Ana, CA, USA), and 16 h later, proliferative responses were measured as counts per minute (cpm) using a Wallac liquid scintillation counter (Perkin Elmer, Waltham, MA, USA) ([26], [28], [30])."}, "CD8 T cells": {"system": "CD8 T cells", "experiment": "T cell proliferation assay, enriched CD8 T cells", "type": "cell-based, A/J mice", "conditions": "CD8 T cells ~95% purity from immunized mice; peptide-loaded irradiated splenocytes 1:1; Figure S3B", "procedure": "as §1"}}, "note": "No end group written: not given here.", "data": [{"substance": "FAGLKKANERADLIAYLKQATK [MCC 82–103]", "values": [{"measurement": "percent dext^+ CD4^high T cells", "setting": "CD4 T cells [1]", "value": "0.33 ± 0.03", "unit": "%"}]}, {"substance": "Myhc 614–643: cardiac myosin heavy chain-α 614–643 (Ac-SLKLMATLFSTYASADTGDSGKGKGGKKKG; UniProt Q02566 614-643, looked up, fragment)", "values": [{"measurement": "Myocarditis by N-terminally acetylated peptide (in words)", "setting": "Balb/c mice", "value": "can induce significant myocarditis"}]}, {"substance": "TRARARALVCTVWAISALVS [β1AR 171-190, 20-mer of mouse β1AR peptide library]", "values": [{"measurement": "T cell responses", "setting": "[2]; 10 μg/ml", "value": 2.68, "unit": "fold"}, {"measurement": "T cell responses", "setting": "[2]; 100 μg/ml", "value": 5.13, "unit": "fold"}, {"measurement": "Myocarditis incidence", "setting": "A/J mice (hearts)", "value": 0, "unit": "%"}, {"measurement": "Myocarditis incidence (animals with disease/total)", "setting": "A/J mice (hearts)", "value": "0/5"}, {"measurement": "Inflammatory foci", "setting": "A/J mice (hearts)", "value": 0}, {"measurement": "IL-17A production (in words)", "setting": "[3]", "value": "tended to be elevated"}]}, {"substance": "TVWAISALVSFLPILMHWWR [β1AR 181-200, 20-mer of mouse β1AR peptide library]", "values": [{"measurement": "Th1 cytokine-producing cells (in words)", "setting": "antigen-primed T cells", "value": "significantly enhanced"}, {"measurement": "T cell responses", "setting": "[2]; 10 μg/ml", "value": 1.70, "unit": "fold"}, {"measurement": "T cell responses", "setting": "[2]; 100 μg/ml", "value": 2.30, "unit": "fold"}, {"measurement": "Disease severity (in words)", "setting": "A/J mice (hearts); individual immunization, non-acetylated peptides", "value": "mild disease"}, {"measurement": "Myocarditis incidence", "setting": "A/J mice (hearts)", "value": 20, "unit": "%"}, {"measurement": "Myocarditis incidence (animals with disease/total)", "setting": "A/J mice (hearts)", "value": "1/5"}, {"measurement": "Inflammatory foci", "setting": "A/J mice (hearts)", "value": 2}, {"measurement": "IL-17A production (in words)", "setting": "[3]", "value": "tended to be elevated"}]}, {"substance": "YNTDGSTDYGILQINSR [HEL 46–61]", "values": [{"measurement": "T cell responses (in words)", "setting": "[2]; proliferation, 0–100 µg/ml, 2 days + 16 h [3H]-thymidine, cpm", "value": "lacking"}, {"measurement": "CD4 T cell proliferative response (in words)", "setting": "CD4 T cells [4]", "value": "lacking"}, {"measurement": "CD8 T cell proliferative response (in words)", "setting": "CD8 T cells", "value": "lacking"}]}]}
